Measurements reported in ChEMBL document CHEMBL1909046, “DrugMatrix in vitro pharmacology data”.

Assays:
[1] = target: 5-hydroxytryptamine receptor 2B (Homo sapiens, UniProt P41595); assay type: cell membranes, CHO-K1, Membrane; further: in other assays of this panel Not Active means under 50% inhibition at 10 µM
[2] = DRUGMATRIX: beta-Lactamase enzyme inhibition (substrate: Nitrocefin); parameters: species or system Bacillus cereus; conditions: Not Active = under 50% inhibition at 10 µM
[3] = target: Mitogen-activated protein kinase 1 (Homo sapiens, UniProt P28482); assay: DRUGMATRIX: Protein Serine/Threonine Kinase, ERK2 enzyme inhibition (substrate: Myelin Basic Protein); parameters: species or system Escherichia coli; conditions: Not Active = under 50% inhibition at 10 µM
Cytochrome P450 2A6 = target: T1, Cytochrome P450 2A6 (Homo sapiens, UniProt P11509); conditions: bti-tn-5b1-4; further: in other assays of this panel Not Active means under 50% inhibition at 10 µM
T1 sequence (P11509 whole entry): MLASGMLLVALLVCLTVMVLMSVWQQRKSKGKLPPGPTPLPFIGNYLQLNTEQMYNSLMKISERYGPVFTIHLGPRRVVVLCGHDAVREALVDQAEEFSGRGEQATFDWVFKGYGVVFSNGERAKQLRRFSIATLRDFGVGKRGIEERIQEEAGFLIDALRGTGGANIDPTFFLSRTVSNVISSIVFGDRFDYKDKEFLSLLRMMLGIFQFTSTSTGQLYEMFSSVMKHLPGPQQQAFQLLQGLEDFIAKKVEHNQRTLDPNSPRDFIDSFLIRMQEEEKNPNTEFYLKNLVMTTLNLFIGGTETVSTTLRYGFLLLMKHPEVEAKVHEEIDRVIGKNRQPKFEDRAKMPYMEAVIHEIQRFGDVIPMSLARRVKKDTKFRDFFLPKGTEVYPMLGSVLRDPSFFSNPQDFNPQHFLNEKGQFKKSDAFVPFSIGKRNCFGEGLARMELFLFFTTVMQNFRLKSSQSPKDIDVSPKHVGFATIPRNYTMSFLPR

[4] = DRUGMATRIX: Glutamate, AMPA radioligand binding (ligand: [3H] AMPA); assay type: cell membranes, Rattus norvegicus, Wistar, Cerebral cortex, Membrane; conditions: Not Active = under 50% inhibition at 10 µM
[5] = target: 5-hydroxytryptamine receptor 4 (Cavia porcellus, UniProt O70528); assay type: cell membranes, Dunkin-Hartley, Striatum, Membrane; further: in other assays of this panel Not Active means under 50% inhibition at 10 µM
5-hydroxytryptamine receptor 4, sequence (O70528 whole entry): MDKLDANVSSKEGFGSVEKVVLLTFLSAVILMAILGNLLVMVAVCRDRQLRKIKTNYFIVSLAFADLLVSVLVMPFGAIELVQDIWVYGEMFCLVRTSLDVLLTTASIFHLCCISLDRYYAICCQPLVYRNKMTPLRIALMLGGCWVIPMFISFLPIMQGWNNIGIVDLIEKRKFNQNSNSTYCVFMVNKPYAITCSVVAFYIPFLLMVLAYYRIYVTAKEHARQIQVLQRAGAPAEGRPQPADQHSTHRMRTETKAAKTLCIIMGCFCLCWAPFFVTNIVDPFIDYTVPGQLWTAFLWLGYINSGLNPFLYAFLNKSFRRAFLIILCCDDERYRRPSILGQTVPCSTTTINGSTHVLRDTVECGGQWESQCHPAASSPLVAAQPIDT

5-hydroxytryptamine receptor 2B, sequence (P41595 whole entry): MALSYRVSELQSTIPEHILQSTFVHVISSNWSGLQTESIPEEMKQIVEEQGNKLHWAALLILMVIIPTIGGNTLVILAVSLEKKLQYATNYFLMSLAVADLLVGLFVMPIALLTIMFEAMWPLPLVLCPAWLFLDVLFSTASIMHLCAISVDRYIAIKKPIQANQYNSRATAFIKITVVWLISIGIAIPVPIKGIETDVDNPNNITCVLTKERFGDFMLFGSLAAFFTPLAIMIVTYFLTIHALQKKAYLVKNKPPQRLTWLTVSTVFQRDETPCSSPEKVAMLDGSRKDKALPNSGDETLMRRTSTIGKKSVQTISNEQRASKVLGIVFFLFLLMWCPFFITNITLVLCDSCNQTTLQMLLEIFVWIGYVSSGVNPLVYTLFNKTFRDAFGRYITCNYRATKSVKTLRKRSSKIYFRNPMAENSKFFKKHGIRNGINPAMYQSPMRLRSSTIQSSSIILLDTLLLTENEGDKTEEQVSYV
Mitogen-activated protein kinase 1, sequence (P28482 whole entry): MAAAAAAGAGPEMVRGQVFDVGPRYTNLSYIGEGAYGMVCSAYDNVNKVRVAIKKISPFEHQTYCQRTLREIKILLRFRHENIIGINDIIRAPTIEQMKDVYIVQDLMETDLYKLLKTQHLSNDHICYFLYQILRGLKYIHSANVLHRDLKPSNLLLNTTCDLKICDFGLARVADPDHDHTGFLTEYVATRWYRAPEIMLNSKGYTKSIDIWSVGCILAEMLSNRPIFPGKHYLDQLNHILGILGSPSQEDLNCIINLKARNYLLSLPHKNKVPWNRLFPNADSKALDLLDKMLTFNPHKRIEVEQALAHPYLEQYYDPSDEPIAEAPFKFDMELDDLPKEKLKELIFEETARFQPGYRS

Row | Structure (SMILES) | IC50 ([1]; cho-k1) | IC50 [2] | Ki [2] | IC50 [3] | IC50 (Cytochrome P450 2A6) | Ki (Cytochrome P450 2A6) | IC50 [4] | Ki [4] | IC50 [5] | IC50 ([1]; read-out: IC50) [µM] | Ki ([1]; read-out: Ki) [µM] | IC50 ([3]; read-out: IC50) [µM]
1 | O=c1[nH]cnc2c1ncn2[C@H]1CC[C@@H](CO)O1 [DIDANOSINE] | Not Active | Not Active | Not Active | Not Active | Not Active | Not Active | Not Active | Not Active | Not Active | – | – | –
2 | Cl.NC[C@H]1CC[C@H](C(=O)Oc2ccc(CCC(=O)O)cc2)CC1 [CETRAXATE HYDROCHLORIDE] | Not Active | Not Active | Not Active | Not Active | Not Active | Not Active | Not Active | Not Active | Not Active | – | – | –
3 | COc1cc([C@@H]2c3cc4c(cc3[C@H](O)[C@H]3COC(=O)[C@H]23)OCO4)cc(OC)c1OC [PODOFILOX] | Not Active | Not Active | Not Active | Not Active | Not Active | Not Active | Not Active | Not Active | Not Active | – | – | –
4 | COc1cc(/C=C/C(=O)O)ccc1O [FERULATE] | Not Active | Not Active | Not Active | Not Active | Not Active | Not Active | Not Active | Not Active | Not Active | – | – | –
5 | O=C(O)CCc1nc(-c2ccccc2)c(-c2ccccc2)o1 [OXAPROZIN] | Not Active | Not Active | Not Active | Not Active | Not Active | Not Active | Not Active | Not Active | Not Active | – | – | –
6 | c1ccc(Cn2ccnc2)cc1 | Not Active | Not Active | Not Active | Not Active | Not Active | Not Active | Not Active | Not Active | Not Active | – | – | –
7 | C[C@H]1C[C@H]2[C@@H]3CCC4=CC(=O)C=C[C@]4(C)[C@@]3(F)[C@@H](O)C[C@]2(C)[C@@]1(O)C(=O)CO [BETAMETHASONE] | Not Active | Not Active | Not Active | Not Active | Not Active | Not Active | Not Active | Not Active | Not Active | – | – | –
8 | Nc1nc(N)c2nc(CNc3ccc(C(=O)N[C@@H](CCC(=O)O)C(=O)O)cc3)cnc2n1 [AMINOPTERIN] | Not Active | Not Active | Not Active | Not Active | Not Active | Not Active | Not Active | Not Active | Not Active | – | – | –
9 | CC(=O)Nc1ccc2c(c1)Cc1ccccc1-2 [2-ACETYLAMINOFLUORENE] | – | Not Active | Not Active | Not Active | Not Active | Not Active | Not Active | Not Active | Not Active | 3.17 | 2.02 | –
10 | C=C(Cl)Cl [1,1-DICHLOROETHENE] | Not Active | Not Active | Not Active | Not Active | Not Active | Not Active | Not Active | Not Active | Not Active | – | – | –
11 | C#C[C@]1(O)CC[C@H]2[C@@H]3CCC4=CC(=O)CC[C@@H]4[C@H]3CC[C@@]21C [NORETHINDRONE] | Not Active | Not Active | Not Active | Not Active | Not Active | Not Active | Not Active | Not Active | Not Active | – | – | –
12 | CC[C@H]1OC(=O)[C@H](C)[C@@H](O[C@H]2C[C@@](C)(OC)[C@@H](O)[C@H](C)O2)[C@H](C)[C@@H](O[C@@H]2O[C@H](C)C[C@H](N(C)C)[C@H]2O)[C@](C)(O)C[C@@H](C)C(=O)[C@H](C)[C@@H](O)[C@]1(C)O [ERYTHROMYCIN] | Not Active | Not Active | Not Active | Not Active | Not Active | Not Active | Not Active | Not Active | Not Active | – | – | –
13 | c1ccc2c(c1)Nc1ccccc1S2 [PHENOTHIAZINE] | Not Active | Not Active | Not Active | Not Active | Not Active | Not Active | Not Active | Not Active | Not Active | – | – | –
14 | C[C@H](C(=O)O)c1ccc2oc(-c3ccc(F)cc3)nc2c1 [FLUNOXAPROFEN] | Not Active | Not Active | Not Active | Not Active | Not Active | Not Active | Not Active | Not Active | Not Active | – | – | –
15 | CC1(COc2ccc(CC3SC(=O)NC3=O)cc2)CCCCC1 (configuration not stated) [CIGLITAZONE] | Not Active | Not Active | Not Active | Not Active | Not Active | Not Active | Not Active | Not Active | Not Active | – | – | –
16 | C=CCN1CC[C@]23c4c5ccc(O)c4O[C@H]2/C(=N/N=C2\CC[C@@]4(O)[C@H]6Cc7ccc(O)c8c7[C@@]4(CCN6CC=C)[C@H]2O8)CC[C@@]3(O)[C@H]1C5 [NALOXONAZINE] | Not Active | Not Active | Not Active | Not Active | Not Active | Not Active | Not Active | Not Active | Not Active | – | – | –
17 | C[N+](C)(C)CCOP(=O)([O-])OC[C@H](O)CO | Not Active | Not Active | Not Active | Not Active | Not Active | Not Active | Not Active | Not Active | Not Active | – | – | –
18 | CCC1(c2ccccc2)C(=O)NC(=O)NC1=O [PHENOBARBITAL] | Not Active | Not Active | Not Active | Not Active | Not Active | Not Active | Not Active | Not Active | Not Active | – | – | –
19 | O=C(O)COC(=O)Cc1ccccc1Nc1c(Cl)cccc1Cl [ACECLOFENAC] | Not Active | Not Active | Not Active | – | Not Active | Not Active | Not Active | Not Active | Not Active | – | – | 5.93
